Values of other authors as cited in patent US7015306B2 (BioSynthema, Inc., priority 1999, dated 2006).

Experiments:
[1] = target: human brain neurotensin membranes; conditions: read-out: Kd for binding on human brain neurotensin membranes; cited from earlier work
[2] = target: rat brain synaptic membranes; conditions: read-out: Kd binding to rat brain synaptic membranes; cited from earlier work

Substance	Kd [1] [nM]	Kd [2] [nM]
monoiodo-125 derivative of natural neurotensin: monoiodo-125 derivative of natural neurotensin, radioiodo analog from the literature	0.26	
monoiodo-125-[Trp^11]-neurotensin (QLYENKPRRPWIL; Neurotensin monoiodo 125I label; UniProt P30990 151-163, looked up, variant Y11W)		0.1
